According to paper PMC10046369, “Low-Affinity/High-Selectivity Dopamine Transport Inhibition Sufficient to Rescue Cognitive Functions in the Aging Rat” (Biomolecules, 2023):

Key:
Test in all cases: biochemical
Set-up in all cases: KINOMEscan competition binding panel, per cent of control
Conditions in all cases: read-out: %Ctrl @ 2800nM
[1] = target: T1, RSK1(Kin.Dom.1-N-terminal) (Homo sapiens, UniProt Q15418)
T1 construct: gene RPS6KA1; Kin.Dom.1-N-terminal
Method in brief: (§1)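 Values are expressed as percent of control, calculated as ((test − positive control)/(negative control − positive control)) × 100, so lower numbers mean stronger hits. Binding was measured by KINOMEscan competition assay in a 450-kinase human panel including disease mutants, using the contractor's validated protocol.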

SRPK1 = SRPK1 (Homo sapiens, UniProt Q96SB4)
Method in brief: as §1

ERK2 = target: T2, ERK2 (Homo sapiens, UniProt P28482)
T2 construct: gene MAPK1
Method in brief: as §1

MAP3K3 = MAP3K3 (Homo sapiens, UniProt Q99759)
Method in brief: as §1

AAK1 = AAK1 (Homo sapiens, UniProt Q2M2I8)
Chain of AAK1 (Q2M2I8 whole entry): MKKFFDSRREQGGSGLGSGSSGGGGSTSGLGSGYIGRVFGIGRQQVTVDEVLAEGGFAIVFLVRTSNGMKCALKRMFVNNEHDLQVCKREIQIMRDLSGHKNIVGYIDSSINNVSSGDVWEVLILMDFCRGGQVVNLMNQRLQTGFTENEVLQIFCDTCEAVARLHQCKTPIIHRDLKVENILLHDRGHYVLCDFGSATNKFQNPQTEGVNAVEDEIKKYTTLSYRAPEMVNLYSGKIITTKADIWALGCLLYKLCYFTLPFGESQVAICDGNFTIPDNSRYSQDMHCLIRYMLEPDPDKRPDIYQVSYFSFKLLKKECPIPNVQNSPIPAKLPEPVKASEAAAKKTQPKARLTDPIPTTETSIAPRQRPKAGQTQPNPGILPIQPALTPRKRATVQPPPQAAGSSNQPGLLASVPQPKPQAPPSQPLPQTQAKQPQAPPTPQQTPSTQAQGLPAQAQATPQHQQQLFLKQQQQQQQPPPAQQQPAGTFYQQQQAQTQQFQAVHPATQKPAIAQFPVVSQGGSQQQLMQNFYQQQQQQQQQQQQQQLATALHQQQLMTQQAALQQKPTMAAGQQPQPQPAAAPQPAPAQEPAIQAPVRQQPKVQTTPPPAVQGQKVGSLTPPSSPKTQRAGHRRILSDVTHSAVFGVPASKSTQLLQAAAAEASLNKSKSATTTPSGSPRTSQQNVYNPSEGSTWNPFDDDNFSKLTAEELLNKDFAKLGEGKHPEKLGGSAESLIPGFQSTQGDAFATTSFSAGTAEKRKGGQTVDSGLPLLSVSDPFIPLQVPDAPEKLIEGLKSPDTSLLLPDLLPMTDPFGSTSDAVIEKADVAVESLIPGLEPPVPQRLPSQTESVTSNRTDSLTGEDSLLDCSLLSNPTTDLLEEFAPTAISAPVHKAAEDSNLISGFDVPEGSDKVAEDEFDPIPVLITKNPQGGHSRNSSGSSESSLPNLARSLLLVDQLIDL
Method in brief: as §1

ALK(C1156Y) = ALK(C1156Y) (Homo sapiens, UniProt Q9UM73, C1156Y)
Method in brief: as §1

[2] = target: T3, ABL1(F317I)-nonphosphorylated (Homo sapiens, UniProt P00519, F317I)
T3 construct: nonphosphorylated
Method in brief: as §1

STK16 = STK16 (Homo sapiens, UniProt O75716)
Method in brief: as §1

BUB1 = BUB1 (Homo sapiens, UniProt O43683)
Method in brief: as §1

ADCK4 = target: T4, ADCK4 (Homo sapiens, UniProt Q96D53)
T4 construct: gene COQ8B
Method in brief: as §1

MKNK1 = MKNK1 (Homo sapiens, UniProt Q9BUB5)
Method in brief: as §1

CSK = CSK (Homo sapiens, UniProt P41240)
Method in brief: as §1

DYRK1A = DYRK1A (Homo sapiens, UniProt Q13627)
Method in brief: as §1

MAPKAPK5 = MAPKAPK5 (Homo sapiens, UniProt Q8IW41)
Method in brief: as §1

PAK7 = target: T5, PAK7 (Homo sapiens, UniProt Q9P286)
T5 construct: gene PAK5
Method in brief: as §1

FLT3-autoinhibited = FLT3-autoinhibited (Homo sapiens, UniProt P36888)
Chain of FLT3-autoinhibited (P36888 whole entry): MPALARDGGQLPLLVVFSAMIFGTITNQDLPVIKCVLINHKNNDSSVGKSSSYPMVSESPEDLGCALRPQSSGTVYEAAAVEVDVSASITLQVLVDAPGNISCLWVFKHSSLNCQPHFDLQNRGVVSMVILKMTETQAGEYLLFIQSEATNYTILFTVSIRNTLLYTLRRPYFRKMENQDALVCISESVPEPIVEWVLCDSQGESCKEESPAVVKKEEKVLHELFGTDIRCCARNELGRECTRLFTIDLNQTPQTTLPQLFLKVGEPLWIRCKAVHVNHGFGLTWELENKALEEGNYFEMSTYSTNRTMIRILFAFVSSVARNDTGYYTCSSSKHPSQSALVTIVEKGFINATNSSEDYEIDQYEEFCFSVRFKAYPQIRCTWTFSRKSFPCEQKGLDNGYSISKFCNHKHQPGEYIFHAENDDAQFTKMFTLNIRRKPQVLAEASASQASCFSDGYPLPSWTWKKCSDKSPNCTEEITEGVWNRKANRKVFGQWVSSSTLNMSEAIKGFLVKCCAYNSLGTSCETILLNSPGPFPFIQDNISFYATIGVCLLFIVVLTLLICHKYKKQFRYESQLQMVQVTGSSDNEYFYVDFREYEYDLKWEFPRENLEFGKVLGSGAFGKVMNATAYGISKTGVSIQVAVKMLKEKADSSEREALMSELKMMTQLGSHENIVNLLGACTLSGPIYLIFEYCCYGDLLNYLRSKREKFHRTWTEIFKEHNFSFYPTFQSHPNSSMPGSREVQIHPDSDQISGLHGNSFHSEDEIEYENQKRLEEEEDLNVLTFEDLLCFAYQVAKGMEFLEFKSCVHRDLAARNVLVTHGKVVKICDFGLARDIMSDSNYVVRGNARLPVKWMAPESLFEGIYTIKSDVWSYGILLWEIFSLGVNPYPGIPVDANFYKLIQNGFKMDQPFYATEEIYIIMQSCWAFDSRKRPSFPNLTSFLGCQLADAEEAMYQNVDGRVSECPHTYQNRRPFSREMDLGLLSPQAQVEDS
Method in brief: as §1

CDK4-cyclinD3 = target: T6, CDK4-cyclinD3 (Homo sapiens, UniProt P11802)
T6 construct: cyclinD3
Method in brief: as §1

TAOK1 = TAOK1 (Homo sapiens, UniProt Q7L7X3)
Method in brief: as §1

PYK2 = target: T7, PYK2 (Homo sapiens, UniProt Q14289)
T7 construct: gene PTK2B
Method in brief: as §1

EGFR(L858R) = EGFR(L858R) (Homo sapiens, UniProt P00533, L858R)
Chain of EGFR(L858R) (P00533 whole entry L858R): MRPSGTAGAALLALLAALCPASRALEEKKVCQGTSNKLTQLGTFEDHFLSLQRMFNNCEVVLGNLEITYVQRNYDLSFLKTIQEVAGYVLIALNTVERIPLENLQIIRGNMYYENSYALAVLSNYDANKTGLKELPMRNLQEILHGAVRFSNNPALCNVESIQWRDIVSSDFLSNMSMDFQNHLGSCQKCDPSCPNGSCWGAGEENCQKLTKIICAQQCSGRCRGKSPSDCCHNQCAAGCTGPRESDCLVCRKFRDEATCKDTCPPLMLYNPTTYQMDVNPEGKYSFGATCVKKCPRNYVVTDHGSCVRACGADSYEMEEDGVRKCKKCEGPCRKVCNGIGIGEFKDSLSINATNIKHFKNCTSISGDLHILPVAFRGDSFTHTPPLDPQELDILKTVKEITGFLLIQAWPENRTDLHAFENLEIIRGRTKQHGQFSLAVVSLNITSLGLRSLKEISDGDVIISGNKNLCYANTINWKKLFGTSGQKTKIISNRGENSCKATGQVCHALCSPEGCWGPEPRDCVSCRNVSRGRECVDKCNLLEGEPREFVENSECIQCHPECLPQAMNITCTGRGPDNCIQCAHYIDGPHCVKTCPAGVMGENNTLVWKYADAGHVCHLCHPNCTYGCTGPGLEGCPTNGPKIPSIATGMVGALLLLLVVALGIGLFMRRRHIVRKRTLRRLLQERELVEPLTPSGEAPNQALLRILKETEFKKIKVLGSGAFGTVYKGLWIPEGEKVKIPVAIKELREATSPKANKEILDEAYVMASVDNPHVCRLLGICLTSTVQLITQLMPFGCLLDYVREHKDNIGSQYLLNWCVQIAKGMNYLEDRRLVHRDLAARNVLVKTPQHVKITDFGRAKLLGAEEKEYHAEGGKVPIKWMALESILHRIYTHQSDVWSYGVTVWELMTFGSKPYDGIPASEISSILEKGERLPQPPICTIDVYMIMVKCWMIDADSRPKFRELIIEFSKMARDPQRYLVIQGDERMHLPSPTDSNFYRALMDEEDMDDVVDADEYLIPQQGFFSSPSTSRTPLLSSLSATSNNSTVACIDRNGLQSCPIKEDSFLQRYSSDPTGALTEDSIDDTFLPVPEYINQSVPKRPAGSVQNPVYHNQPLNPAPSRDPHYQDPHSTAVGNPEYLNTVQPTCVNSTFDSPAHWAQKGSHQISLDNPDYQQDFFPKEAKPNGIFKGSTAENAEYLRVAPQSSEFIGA
Method in brief: as §1

[3] = target: T8, RPS6KA4(Kin.Dom.2-C-terminal) (Homo sapiens, UniProt O75676)
T8 construct: Kin.Dom.2-C-terminal
T8 sequence (O75676 whole entry): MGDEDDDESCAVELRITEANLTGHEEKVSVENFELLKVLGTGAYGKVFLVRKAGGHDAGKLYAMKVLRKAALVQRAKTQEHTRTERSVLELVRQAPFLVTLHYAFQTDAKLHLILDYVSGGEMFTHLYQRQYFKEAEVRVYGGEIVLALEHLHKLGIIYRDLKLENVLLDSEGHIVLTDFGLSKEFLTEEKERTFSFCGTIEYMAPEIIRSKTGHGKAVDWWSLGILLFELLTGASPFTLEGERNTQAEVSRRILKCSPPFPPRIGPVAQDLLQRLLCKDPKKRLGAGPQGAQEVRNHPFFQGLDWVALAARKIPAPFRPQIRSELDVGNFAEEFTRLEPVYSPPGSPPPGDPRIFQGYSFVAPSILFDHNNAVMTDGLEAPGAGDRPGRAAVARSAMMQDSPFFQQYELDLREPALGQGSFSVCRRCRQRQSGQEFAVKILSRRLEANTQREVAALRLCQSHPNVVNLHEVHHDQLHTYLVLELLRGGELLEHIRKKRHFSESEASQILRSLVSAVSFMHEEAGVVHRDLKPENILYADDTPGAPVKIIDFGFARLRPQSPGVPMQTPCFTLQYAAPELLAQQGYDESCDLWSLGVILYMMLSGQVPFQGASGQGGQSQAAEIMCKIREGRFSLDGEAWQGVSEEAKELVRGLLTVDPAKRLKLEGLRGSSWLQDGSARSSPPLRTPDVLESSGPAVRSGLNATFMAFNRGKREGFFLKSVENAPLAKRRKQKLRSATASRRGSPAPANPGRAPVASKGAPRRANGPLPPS
Method in brief: as §1

EPHA8 = EPHA8 (Homo sapiens, UniProt P29322)
Chain of EPHA8 (P29322 whole entry): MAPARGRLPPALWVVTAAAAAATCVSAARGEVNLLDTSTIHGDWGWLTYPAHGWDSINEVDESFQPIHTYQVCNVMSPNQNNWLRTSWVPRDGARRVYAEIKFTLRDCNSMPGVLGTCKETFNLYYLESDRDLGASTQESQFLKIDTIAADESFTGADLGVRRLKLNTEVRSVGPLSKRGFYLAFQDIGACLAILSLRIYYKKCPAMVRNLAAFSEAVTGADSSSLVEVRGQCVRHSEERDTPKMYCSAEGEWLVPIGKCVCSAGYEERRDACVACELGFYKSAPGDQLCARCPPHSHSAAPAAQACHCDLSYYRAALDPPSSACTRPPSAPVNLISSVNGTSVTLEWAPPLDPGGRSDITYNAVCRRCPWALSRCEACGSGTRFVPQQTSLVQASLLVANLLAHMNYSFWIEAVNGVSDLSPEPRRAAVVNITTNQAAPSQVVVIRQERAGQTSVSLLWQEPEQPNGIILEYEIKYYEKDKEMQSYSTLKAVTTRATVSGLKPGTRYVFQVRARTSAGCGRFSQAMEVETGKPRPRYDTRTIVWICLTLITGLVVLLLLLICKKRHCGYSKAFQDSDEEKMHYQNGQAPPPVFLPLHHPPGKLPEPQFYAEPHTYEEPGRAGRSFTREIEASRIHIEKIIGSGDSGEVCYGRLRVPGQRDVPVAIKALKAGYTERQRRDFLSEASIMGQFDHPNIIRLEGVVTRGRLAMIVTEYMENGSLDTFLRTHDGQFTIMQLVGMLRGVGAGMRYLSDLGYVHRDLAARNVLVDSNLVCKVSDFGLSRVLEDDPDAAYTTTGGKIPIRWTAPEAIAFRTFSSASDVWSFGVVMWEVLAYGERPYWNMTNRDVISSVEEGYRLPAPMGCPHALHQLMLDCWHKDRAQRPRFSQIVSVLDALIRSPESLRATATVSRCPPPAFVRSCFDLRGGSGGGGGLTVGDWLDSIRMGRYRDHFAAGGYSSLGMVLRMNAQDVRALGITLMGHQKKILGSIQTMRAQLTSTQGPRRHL
Method in brief: as §1

MEK4 = target: T9, MEK4 (Homo sapiens, UniProt P45985)
T9 construct: gene MAP2K4
Method in brief: as §1

PHKG1 = PHKG1 (Homo sapiens, UniProt Q16816)
Method in brief: as §1

EGFR(G719C) = EGFR(G719C) (Homo sapiens, UniProt P00533, G719C)
Method in brief: as §1

PDGFRA = PDGFRA (Homo sapiens, UniProt P16234)
Method in brief: as §1

**Q.** How did the remaining binding at 2.8 µM [1] turn out when `[O-][S@@+](Cc1cncs1)C(c1ccccc1)c1ccccc1` [S-CE-123, (S)-5-((Benzhydrylsulfinyl)Methyl)Thiazole] was run?
**A.** 80%

**Q.** What about the remaining binding at 2.8 µM (SRPK1) of the same compound?
**A.** 92%

**Q.** And the remaining binding at 2.8 µM (ERK2)?
**A.** 95%

**Q.** And the remaining binding at 2.8 µM (MAP3K3)?
**A.** 86%

**Q.** And the remaining binding at 2.8 µM (AAK1)?
**A.** 88%

**Q.** And the remaining binding at 2.8 µM (ALK(C1156Y))?
**A.** 100%

**Q.** And the remaining binding at 2.8 µM [2]?
**A.** 100%

**Q.** What about the remaining binding at 2.8 µM (STK16) of the same compound?
**A.** 97%

**Q.** What about the remaining binding at 2.8 µM (BUB1) of the same compound?
**A.** 100%

**Q.** And the remaining binding at 2.8 µM (ADCK4)?
**A.** 96%

**Q.** And the remaining binding at 2.8 µM (MKNK1)?
**A.** 96%

**Q.** And the remaining binding at 2.8 µM (CSK)?
**A.** 98%

**Q.** What about the remaining binding at 2.8 µM (DYRK1A) of the same compound?
**A.** 96%

**Q.** What about the remaining binding at 2.8 µM (MAPKAPK5) of the same compound?
**A.** 100%

**Q.** And the remaining binding at 2.8 µM (PAK7)?
**A.** 98%

**Q.** What about the remaining binding at 2.8 µM (FLT3-autoinhibited) of the same compound?
**A.** 99%

**Q.** And the remaining binding at 2.8 µM (CDK4-cyclinD3)?
**A.** 85%

**Q.** What about the remaining binding at 2.8 µM (TAOK1) of the same compound?
**A.** 100%

**Q.** And the remaining binding at 2.8 µM (PYK2)?
**A.** 100%

**Q.** What about the remaining binding at 2.8 µM (EGFR(L858R)) of the same compound?
**A.** 92%

**Q.** What about the remaining binding at 2.8 µM [3] of the same compound?
**A.** 99%

**Q.** And the remaining binding at 2.8 µM (EPHA8)?
**A.** 100%

**Q.** What about the remaining binding at 2.8 µM (MEK4) of the same compound?
**A.** 100%

**Q.** What about the remaining binding at 2.8 µM (PHKG1) of the same compound?
**A.** 100%

**Q.** And the remaining binding at 2.8 µM (EGFR(G719C))?
**A.** 74%

**Q.** What about the remaining binding at 2.8 µM (PDGFRA) of the same compound?
**A.** 98%
